{"source": "paper PMC5404560", "about": "“Towards Selective Mycobacterial ClpP1P2 Inhibitors with Reduced Activity against the Human Proteasome” (Antimicrobial Agents and Chemotherapy, 2017)", "key": {"Cathepsin G": {"target": "T1, Cathepsin G (Homo sapiens, UniProt P08311)", "T1 construct": "Reaction Biology Corporation (contract testing)", "T1 sequence (P08311 21-255, species assumed)": "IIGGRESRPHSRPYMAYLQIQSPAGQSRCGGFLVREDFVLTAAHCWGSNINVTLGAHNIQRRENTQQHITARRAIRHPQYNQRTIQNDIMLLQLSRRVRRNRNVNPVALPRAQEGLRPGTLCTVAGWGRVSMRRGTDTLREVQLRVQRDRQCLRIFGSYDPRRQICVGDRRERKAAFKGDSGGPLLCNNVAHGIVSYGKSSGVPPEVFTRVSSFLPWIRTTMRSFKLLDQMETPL", "assay": "Protease panel: Cathepsin G", "assay_type": "biochemical", "details": "supplement panel table, test and control compound", "quoted_text": "(§2) Protease panel testing was carried out by Reaction Biology Corporation."}, "Chymase": {"target": "Chymase (Homo sapiens, UniProt P23946)", "sequence (P23946 22-247, species assumed)": "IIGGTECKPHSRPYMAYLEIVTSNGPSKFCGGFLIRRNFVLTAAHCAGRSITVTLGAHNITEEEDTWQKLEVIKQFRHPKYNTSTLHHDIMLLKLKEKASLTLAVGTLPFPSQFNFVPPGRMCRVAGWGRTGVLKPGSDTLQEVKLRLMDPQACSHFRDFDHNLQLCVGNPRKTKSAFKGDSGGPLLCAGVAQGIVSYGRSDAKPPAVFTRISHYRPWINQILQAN", "assay": "Protease panel: Chymase", "assay_type": "biochemical", "details": "supplement panel table, test and control compound", "quoted_text": "as §2"}, "[1]": {"assay": "MTS cytotoxicity assay, Vero", "assay_type": "cell-based", "details": "African green monkey", "description": "(§1) The MTS (Promega) reduction assay was used according to manufacturer's guidelines to assess Vero (ATCC […]) and HepG2 (ATCC HB-8065) cell viability. […] Carbonyl cyanide m-chlorophenylhydrazone (CCCP) was used as a cytotoxic positive control. Cytotoxicity was determined twice in independent experiments."}, "ClpP1P2": {"target": "ClpP1P2 (Mycolicibacterium smegmatis, UniProt A0R197+A0R198)", "sequence (A0R198 4-203)": "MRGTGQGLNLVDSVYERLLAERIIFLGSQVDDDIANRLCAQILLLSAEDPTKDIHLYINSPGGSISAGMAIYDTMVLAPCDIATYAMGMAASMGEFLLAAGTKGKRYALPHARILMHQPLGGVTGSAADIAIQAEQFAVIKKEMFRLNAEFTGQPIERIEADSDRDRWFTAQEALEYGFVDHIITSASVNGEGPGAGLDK", "sequence (A0R197 17-218)": "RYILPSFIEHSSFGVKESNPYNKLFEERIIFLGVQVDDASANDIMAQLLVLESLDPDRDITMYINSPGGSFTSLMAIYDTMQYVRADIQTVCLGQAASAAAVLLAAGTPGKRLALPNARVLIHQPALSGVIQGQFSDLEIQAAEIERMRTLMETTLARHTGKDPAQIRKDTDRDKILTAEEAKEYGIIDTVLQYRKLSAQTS", "assay": "ClpP1P2 inhibition whole-cell RFP-SsrA reporter assay", "details": "3 h incubation"}, "M. tuberculosis H37Rv": {"test_system": "M. tuberculosis H37Rv", "assay": "microbe, parasite or virus in culture", "assay_type": "cell-based", "details": "for MIC50 / MIC90: Mycobacterium tuberculosis, H37RV, 120 h; for MIC50: read-out: MIC50 (μM) against M. tuberculosis H37Rv; for MIC90: read-out: MIC90 (μM) against M. tuberculosis H37Rv"}, "M. smegmatis ΔprcAB": {"test_system": "M. smegmatis ΔprcAB", "assay_type": "cell-based", "details": "24 h exposure, OD600; concentration inhibiting 50% of growth"}, "Mycobacterium bovis BCG": {"test_system": "Mycobacterium bovis BCG", "assay": "microbe, parasite or virus in culture", "assay_type": "cell-based", "details": "Mycobacterium tuberculosis variant bovis BCG, read-out: MIC50 for Mycobacterium bovis BCG"}, "M. smegmatis wild-type": {"test_system": "M. smegmatis wild-type", "assay": "Growth inhibition, M. smegmatis wild type", "assay_type": "cell-based", "details": "Mycolicibacterium smegmatis; wild-type strain"}, "[2]": {"assay": "MTS cytotoxicity assay, HepG2", "assay_type": "cell-based, human", "details": "human", "description": "as §1"}, "HepG2 proteasome": {"target": "HepG2 proteasome (Homo sapiens, UniProt P20618+P28074)", "assay": "Cell-based proteasome CT-like peptidase inhibition assay (Proteasome-Glo)", "quoted_text": "A cell-based CT-like peptidase assay was performed using the Proteasome-Glo cell-based assay reagent (Promega) according to the manufacturer's guidelines. Briefly, HepG2 cells (10^4 cells/well) were treated with the compounds indicated in the figures for 2 h, followed by incubation with the luminescent substrate for 10 min. Luminescence was detected with a Tecan M200 Pro plate reader."}, "[3]": {"details": "M. smegmatis ΔprcAB IC50 (μM) for ClpP1P2, whole-cell RFP-SsrA reporter"}}, "note": "Several values for one entry are separate records, joined by “and”; a condition that tells them apart may be missing. Equal entries are not always repeated. Where two headings read alike, the source gives them in different places.", "data": [{"smiles": "CC(C)C[C@H](NC(=O)[C@@H](NC(=O)N[C@@H](Cc1ccccc1)C(=O)O)[C@@H]1CCN=C(N)N1)C(=O)N[C@H](C=O)Cc1ccccc1", "note": "[Chymostatin, reference compound]", "values": [{"measurement": "IC50", "setting": "Cathepsin G", "result": 3.83, "unit": "µM"}, {"measurement": "IC50", "setting": "Chymase", "result": 0.0915, "unit": "µM"}]}, {"smiles": "CC(C)C[C@H](NC(=O)[C@H](Cc1ccccc1)NC(=O)c1cnccn1)B(O)O", "note": "[Compound 1, bortezomib, reference compound]", "values": [{"measurement": "GI50", "setting": "[1]", "result": 250, "unit": "µM"}, {"measurement": "IC50", "setting": "ClpP1P2; read-out: M. smegmatis ΔprcAB IC50 (μM) for ClpP1P2, whole-cell RFP-SsrA reporter", "result": "6 ± 0.5", "unit": "µM"}, {"measurement": "MIC50", "setting": "M. tuberculosis H37Rv; 5 days", "result": "4.3 ± 1.3", "unit": "µM"}, {"measurement": "MIC90", "setting": "M. tuberculosis H37Rv; 5 days", "result": "12 ± 0.5", "unit": "µM"}, {"measurement": "M. smegmatis ΔprcAB MIC50", "setting": "M. smegmatis ΔprcAB", "result": "6 ± 0", "unit": "µM"}, {"measurement": "MIC50", "setting": "Mycobacterium bovis BCG", "result": 1.8, "unit": "µM"}, {"measurement": "MIC50", "setting": "M. smegmatis wild-type", "result": 5, "unit": "µM"}, {"measurement": "GI50", "setting": "[2]", "result": 400, "unit": "µM"}]}, {"smiles": "O=C(N[C@@H](Cc1ccccc1)C(=O)N[C@@H](Cc1ccccc1)B(O)O)c1cnccn1", "note": "[Compound 31, ((R)-2-phenyl-1-((S)-3-phenyl-2-(pyrazine-2-carboxamido)propanamido)ethyl)boronic acid]", "values": [{"measurement": "IC50", "setting": "ClpP1P2; [3]", "result": "7.5 ± 2.6", "unit": "µM"}, {"measurement": "IC50", "setting": "HepG2 proteasome", "result": "0.05 ± 0.01", "unit": "µM"}, {"measurement": "MIC50", "setting": "M. tuberculosis H37Rv; 5 days", "result": 6, "unit": "µM"}, {"measurement": "MIC90", "setting": "M. tuberculosis H37Rv; 5 days", "result": 20, "unit": "µM"}, {"measurement": "M. smegmatis ΔprcAB MIC50", "setting": "M. smegmatis ΔprcAB", "result": "16.5 µM and 16.5 ± 8.5 µM"}]}, {"smiles": "O=C(N[C@@H](Cc1ccccc1)C(=O)N[C@@H](CCc1ccccc1)B(O)O)c1cnccn1", "note": "[Compound 32, ((R)-3-phenyl-1-((S)-3-phenyl-2-(pyrazine-2-carboxamido)propanamido)propyl)boronic acid]", "values": [{"measurement": "IC50", "setting": "ClpP1P2; [3]", "result": "7.3 ± 1.9", "unit": "µM"}, {"measurement": "IC50", "setting": "HepG2 proteasome", "result": "0.07 ± 0.01", "unit": "µM"}, {"measurement": "MIC50", "setting": "M. tuberculosis H37Rv; 5 days", "result": 6, "unit": "µM"}, {"measurement": "MIC90", "setting": "M. tuberculosis H37Rv; 5 days", "result": 25, "unit": "µM"}, {"measurement": "M. smegmatis ΔprcAB MIC50", "setting": "M. smegmatis ΔprcAB", "result": "7 ± 1", "unit": "µM"}]}, {"smiles": "O=C(N[C@@H](Cc1ccccc1)C(=O)N[C@@H](CCc1ccccc1)B(O)O)c1ccccc1", "note": "[Compound 51, ((R)-1-((S)-2-benzamido-3-phenylpropanamido)-3-phenylpropyl)boronic acid]", "values": [{"measurement": "IC50", "setting": "ClpP1P2; [3]", "result": "1.5 ± 0.5", "unit": "µM"}, {"measurement": "IC50", "setting": "HepG2 proteasome", "result": "0.167 ± 0.059", "unit": "µM"}, {"measurement": "MIC50", "setting": "M. tuberculosis H37Rv; 5 days", "result": "1 ± 0.2", "unit": "µM"}, {"measurement": "MIC90", "setting": "M. tuberculosis H37Rv; 5 days", "result": "6 ± 0.2", "unit": "µM"}, {"measurement": "M. smegmatis ΔprcAB MIC50", "setting": "M. smegmatis ΔprcAB", "result": "2.7 ± 0.5", "unit": "µM"}]}, {"smiles": "O=C(N[C@@H](Cc1ccc(O)cc1)C(=O)N[C@@H](CCc1ccccc1)B(O)O)c1cnccn1", "note": "[Compound 57]", "values": [{"measurement": "IC50", "setting": "ClpP1P2; [3]", "result": "7.5 ± 4.5", "unit": "µM"}, {"measurement": "IC50", "setting": "HepG2 proteasome", "result": "0.533 ± 0.103", "unit": "µM"}, {"measurement": "improvement of M. tuberculosis MIC50 over compound 1", "setting": "M. tuberculosis H37Rv", "result": 5, "unit": "fold"}, {"measurement": "MIC50 (μM) against M. tuberculosis H37Rv", "setting": "M. tuberculosis H37Rv; 5 days", "result": "0.8 ± 0", "unit": "µM"}, {"measurement": "MIC50", "setting": "M. tuberculosis H37Rv; 5 days", "result": 0.8, "unit": "µM"}, {"measurement": "MIC90", "setting": "M. tuberculosis H37Rv; 5 days", "result": 3, "unit": "µM"}, {"measurement": "M. smegmatis ΔprcAB MIC50", "setting": "M. smegmatis ΔprcAB", "result": "8 ± 2.8", "unit": "µM"}]}]}
